Test results published in article PMC7413254 (Nature Communications, 2020).
Like-named read-outs stand apart in the source and are kept apart here.

How the values were obtained:
PfCRT^Dd2 [1] = target: T1, PfCRT^Dd2 (Plasmodium falciparum, UniProt Q9N623, A220S/I356T/K76T/M74I/N326S/N75E/Q271E/R371I); test: cell-based; format: cell-based; settings: for PfCRT-mediated [3H]CQ transport, trans-stimulation (% PfCRTDd2 control): normalised to oocyte type control; for [3H]CQ transport (% PfCRTDd2 control), trans-stimulation, PfCRTDd2: PfCRT-mediated component (background subtracted), mean ± SEM, SEM
T1 sequence (Q9N623 whole entry A220S/I356T/K76T/M74I/N326S/N75E/Q271E/R371I): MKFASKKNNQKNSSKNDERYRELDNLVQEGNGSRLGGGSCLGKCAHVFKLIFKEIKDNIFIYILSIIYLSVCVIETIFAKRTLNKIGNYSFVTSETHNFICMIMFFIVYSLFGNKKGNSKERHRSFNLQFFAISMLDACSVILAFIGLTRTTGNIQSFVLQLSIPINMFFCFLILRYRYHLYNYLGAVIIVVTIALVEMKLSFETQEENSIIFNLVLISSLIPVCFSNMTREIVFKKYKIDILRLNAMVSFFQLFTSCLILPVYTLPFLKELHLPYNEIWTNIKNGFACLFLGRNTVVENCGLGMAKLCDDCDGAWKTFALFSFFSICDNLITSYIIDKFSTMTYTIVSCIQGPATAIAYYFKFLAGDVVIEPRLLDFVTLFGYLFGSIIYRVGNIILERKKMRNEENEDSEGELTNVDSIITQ
Summary of the method: (§1)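 Transport measured in Xenopus oocytes expressing the transporters, 1.5 h at 27.5 °C in ND96 pH 5.5 unless noted. For trans-stimulation, VF-6 injected in 25 nL ND96 at pH 5.0–7.0 or Na^+-free (choline) buffer; intracellular levels based on ~400 nL oocyte volume. Ten oocytes per treatment, ≥4 experiments.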

PfNT1 = target: T2, PfNT1 (Plasmodium falciparum, UniProt Q8IDM6); test: cell-based; format: cell-based; settings: PfNT1 oocytes, total [3H]CQ transport, normalised to the oocyte type control
T2 construct: expressed in transfected cells; host or cells: Xenopus laevis oocytes (stage V-VI), cRNA-injected
T2 sequence (Q8IDM6 whole entry): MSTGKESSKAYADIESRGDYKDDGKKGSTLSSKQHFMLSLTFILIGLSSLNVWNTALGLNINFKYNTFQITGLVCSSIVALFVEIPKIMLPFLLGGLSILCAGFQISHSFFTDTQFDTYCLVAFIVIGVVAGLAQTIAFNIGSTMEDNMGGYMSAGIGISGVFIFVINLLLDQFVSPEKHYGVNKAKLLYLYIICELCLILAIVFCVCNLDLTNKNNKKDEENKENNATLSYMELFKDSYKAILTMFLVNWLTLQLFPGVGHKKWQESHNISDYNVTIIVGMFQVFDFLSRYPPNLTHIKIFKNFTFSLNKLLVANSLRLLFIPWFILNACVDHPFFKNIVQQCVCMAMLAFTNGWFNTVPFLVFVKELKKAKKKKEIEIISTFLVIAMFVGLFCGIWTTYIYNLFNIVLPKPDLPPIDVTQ
Summary of the method: as §1

PfCRT^Ecu1110 [2] = target: T3, PfCRT^Ecu1110 (Plasmodium falciparum, UniProt Q9N623, A220S/I356L/K76T/N326D); test: cell-based; format: cell-based; settings: for Uptake of [3H]CQ (% PfCRTEcu1110 control), trans-stimulation / PfCRT-mediated [3H]CQ transport, trans-stimulation (% PfCRTEcu1110 control): PfCRTEcu1110 oocytes; for Uptake of [3H]CQ (% PfCRTEcu1110 control), trans-stimulation: total [3H]CQ transport, normalised to the oocyte type control; for PfCRT-mediated [3H]CQ transport, trans-stimulation (% PfCRTEcu1110 control): normalised to oocyte type control; for [3H]CQ transport (% PfCRTDd2 control), trans-stimulation, PfCRTEcu1110: PfCRT-mediated component (background subtracted), sheet title says normalised to PfCRTDd2 control, mean ± SEM, SEM
T3 sequence (Q9N623 whole entry A220S/I356L/K76T/N326D): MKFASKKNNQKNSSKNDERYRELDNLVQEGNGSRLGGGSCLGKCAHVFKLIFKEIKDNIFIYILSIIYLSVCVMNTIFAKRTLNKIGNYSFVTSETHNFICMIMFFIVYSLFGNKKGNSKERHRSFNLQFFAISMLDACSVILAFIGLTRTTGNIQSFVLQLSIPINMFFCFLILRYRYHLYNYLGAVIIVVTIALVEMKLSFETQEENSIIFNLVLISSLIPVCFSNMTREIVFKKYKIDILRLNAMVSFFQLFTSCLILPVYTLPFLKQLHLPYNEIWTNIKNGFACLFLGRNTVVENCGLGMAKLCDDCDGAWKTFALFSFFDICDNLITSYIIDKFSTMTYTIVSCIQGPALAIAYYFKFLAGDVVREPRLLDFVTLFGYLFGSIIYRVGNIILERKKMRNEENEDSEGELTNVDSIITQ
Summary of the method: as §1

PfCRT^3D7 [3] = target: T4, PfCRT^3D7 (Plasmodium falciparum, UniProt Q8IBZ9); test: cell-based; format: cell-based; settings: PfCRT3D7 oocytes; for Uptake of [3H]CQ (% PfCRT3D7 control), trans-stimulation: total [3H]CQ transport, normalised to the oocyte type control; for PfCRT-mediated [3H]CQ transport, trans-stimulation (% PfCRT3D7 control): normalised to oocyte type control
T4 sequence (Q8IBZ9 59-398): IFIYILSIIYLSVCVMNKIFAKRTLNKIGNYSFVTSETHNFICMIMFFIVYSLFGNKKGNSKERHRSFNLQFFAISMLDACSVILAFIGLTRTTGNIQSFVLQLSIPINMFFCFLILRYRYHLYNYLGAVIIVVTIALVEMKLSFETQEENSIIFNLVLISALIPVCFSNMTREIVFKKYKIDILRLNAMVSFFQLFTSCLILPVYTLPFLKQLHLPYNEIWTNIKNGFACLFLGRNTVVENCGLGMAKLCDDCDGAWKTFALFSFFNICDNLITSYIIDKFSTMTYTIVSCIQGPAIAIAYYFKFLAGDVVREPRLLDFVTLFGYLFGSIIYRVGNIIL
Summary of the method: as §1

non-expressing oocytes [4] = test: cells; format: cell-based, Xenopus laevis; settings: non-expressing oocytes, total [3H]CQ transport, normalised to the oocyte type control
Summary of the method: (§2)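 PfCRT-expressing and control oocytes: ND96 pH 5.5 → 1.5 h at 27.5 °C → ice-cold ND96 wash → 10% SDS lysis → scintillation count.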

PfCRT^Dd2 [5] = target: T1, PfCRT^Dd2; test: [3H]CQ uptake into Xenopus oocytes, cis-inhibition by unlabelled solute; format: cell-based; settings: PfCRTDd2 oocytes, background [3H]CQ accumulation subtracted, normalised to oocyte type control
Summary of the method: as §2

PfCRT^Ecu1110 [6] = target: T3, PfCRT^Ecu1110; test: as above; format: cell-based; settings: for Uptake of [3H]CQ (% PfCRTEcu1110 control), cis-inhibition / PfCRT-mediated [3H]CQ transport, cis-inhibition (% PfCRTEcu1110 control): PfCRTEcu1110 oocytes; for Uptake of [3H]CQ (% PfCRTEcu1110 control), cis-inhibition: total [3H]CQ transport, normalised to the oocyte type control; for PfCRT-mediated [3H]CQ transport, cis-inhibition (% PfCRTEcu1110 control): background [3H]CQ accumulation subtracted, normalised to oocyte type control; for [3H]CQ transport (% PfCRTEcu1110 control), cis-inhibition, PfCRTEcu1110: PfCRT-mediated component (background subtracted), sheet title says normalised to PfCRTDd2 control, mean ± SEM, SEM
Summary of the method: as §2

PfCRT^3D7 [7] = target: T4, PfCRT^3D7; test: cell-based; format: cell-based; settings: PfCRT3D7 oocytes, total [3H]CQ transport, normalised to the oocyte type control
Summary of the method: as §2

non-expressing oocytes [8] = format: cell-based, Xenopus laevis; settings: non-expressing oocytes, total [3H]CQ transport, normalised to the oocyte type control
Summary of the method: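 Oocytes (ten per treatment, ≥4 independent frogs/days) were preloaded by injecting VF-6 in 25 nL ND96 at pH 5.0, 5.5, 6.0 or 7.0, or Na^+-free choline buffer, then uptake run 1.5 h, 27.5 °C, ND96 pH 5.5 by default. Internal concentrations assumed ~400 nL oocyte volume.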

[9] = [test solute]i = 5 mM (injected)
[10] = [test solute]i = 45 mM (30 mM for some solutes due to solubility)
[11] = [test solute]i = 5 mM (intracellular)
[12] = [test solute]i = 45 mM (intracellular; 30 mM for some solutes due to solubility)

## GGYR [GR-4]
PfCRT^Dd2 [1]; PfCRTDd2 oocytes, [test solute]i = 45 mM (30 mM for some solutes due to solubility), total [3H]CQ transport, normalised to the oocyte type control
  Uptake of [3H]CQ (% PfCRTDd2 control), trans-stimulation: 103 ± 3.6 % PfCRTDd2 control
PfCRT^Dd2 [1]; [test solute]i = 5 mM (intracellular), PfCRTDd2 oocytes
  PfCRT-mediated [3H]CQ transport, trans-stimulation (% PfCRTDd2 control): 99 ± 2.9 % PfCRTDd2 control
PfCRT^Dd2 [1]; [test solute]i = 45 mM (intracellular; 30 mM for some solutes due to solubility), PfCRTDd2 oocytes
  PfCRT-mediated [3H]CQ transport, trans-stimulation (% PfCRTDd2 control): 100 ± 4.9 % PfCRTDd2 control
PfCRT^Dd2 [1]; [9]
  [3H]CQ transport (% PfCRTDd2 control), trans-stimulation, PfCRTDd2: 99 ± 2.9 % PfCRTDd2 control
PfCRT^Dd2 [1]; [10]
  [3H]CQ transport (% PfCRTDd2 control), trans-stimulation, PfCRTDd2: 100 ± 4.9 % PfCRTDd2 control
PfNT1; [test solute]i = 5 mM
  Uptake of [3H]CQ (% PfNT1 control), trans-stimulation: 99 ± 3.2 % PfNT1 control
PfNT1; [10]
  Uptake of [3H]CQ (% PfNT1 control), trans-stimulation: 100 ± 3.7 % PfNT1 control
PfCRT^Ecu1110 [2]; [test solute]i = 5 mM
  Uptake of [3H]CQ (% PfCRTEcu1110 control), trans-stimulation: 99 ± 3.2 % PfCRTEcu1110 control
PfCRT^Ecu1110 [2]; [10]
  Uptake of [3H]CQ (% PfCRTEcu1110 control), trans-stimulation: 100 ± 3.2 % PfCRTEcu1110 control
  [3H]CQ transport (% PfCRTDd2 control), trans-stimulation, PfCRTEcu1110: 30 ± 1.2 % PfCRTEcu1110 control
PfCRT^Ecu1110 [2]; [11]
  PfCRT-mediated [3H]CQ transport, trans-stimulation (% PfCRTEcu1110 control): 97 ± 4.1 % PfCRTEcu1110 control
PfCRT^Ecu1110 [2]; [12]
  PfCRT-mediated [3H]CQ transport, trans-stimulation (% PfCRTEcu1110 control): 98 ± 4.3 % PfCRTEcu1110 control
PfCRT^Ecu1110 [2]; [9]
  [3H]CQ transport (% PfCRTDd2 control), trans-stimulation, PfCRTEcu1110: 29 ± 1.5 % PfCRTEcu1110 control
PfCRT^3D7 [3]; [test solute]i = 5 mM
  Uptake of [3H]CQ (% PfCRT3D7 control), trans-stimulation: 100 ± 2.6 % PfCRT3D7 control
PfCRT^3D7 [3]; [10]
  Uptake of [3H]CQ (% PfCRT3D7 control), trans-stimulation: 99 ± 2.6 % PfCRT3D7 control
PfCRT^3D7 [3]; [11]
  PfCRT-mediated [3H]CQ transport, trans-stimulation (% PfCRT3D7 control): 98 ± 3.3 % PfCRT3D7 control
PfCRT^3D7 [3]; [12]
  PfCRT-mediated [3H]CQ transport, trans-stimulation (% PfCRT3D7 control): 97 ± 4.2 % PfCRT3D7 control
non-expressing oocytes [4]; [test solute] = 0.5 mM
  Uptake of [3H]CQ (% non-expressing oocyte control), cis-inhibition: 99 ± 5.2 % non-expressing oocyte control
non-expressing oocytes [4]; [test solute] = 2 mM
  Uptake of [3H]CQ (% non-expressing oocyte control), cis-inhibition: 100 ± 3.6 % non-expressing oocyte control
PfCRT^Dd2 [5]; [test solute] = 0.5 mM
  PfCRT-mediated [3H]CQ transport, cis-inhibition (% PfCRTDd2 control): 71 ± 2.9 % PfCRTDd2 control
PfCRT^Dd2 [5]; [test solute] = 1 mM
  PfCRT-mediated [3H]CQ transport, cis-inhibition (% PfCRTDd2 control): 58 ± 4.2 % PfCRTDd2 control
PfCRT^Dd2 [5]; [test solute] = 2 mM
  PfCRT-mediated [3H]CQ transport, cis-inhibition (% PfCRTDd2 control): 40 ± 2.1 % PfCRTDd2 control
PfCRT^Ecu1110 [6]; [test solute] = 0.5 mM
  Uptake of [3H]CQ (% PfCRTEcu1110 control), cis-inhibition: 78 ± 6.9 % PfCRTEcu1110 control
  PfCRT-mediated [3H]CQ transport, cis-inhibition (% PfCRTEcu1110 control): 71 ± 2.5 % PfCRTEcu1110 control
PfCRT^Ecu1110 [6]; [test solute] = 1 mM
  Uptake of [3H]CQ (% PfCRTEcu1110 control), cis-inhibition: 65 ± 7.1 % PfCRTEcu1110 control
  PfCRT-mediated [3H]CQ transport, cis-inhibition (% PfCRTEcu1110 control): 59 ± 2.4 % PfCRTEcu1110 control
  [3H]CQ transport (% PfCRTEcu1110 control), cis-inhibition, PfCRTEcu1110: 19 ± 0.1 % PfCRTEcu1110 control
PfCRT^Ecu1110 [6]; [test solute] = 2 mM
  Uptake of [3H]CQ (% PfCRTEcu1110 control), cis-inhibition: 53 ± 4.7 % PfCRTEcu1110 control
  PfCRT-mediated [3H]CQ transport, cis-inhibition (% PfCRTEcu1110 control): 48 ± 3.1 % PfCRTEcu1110 control
  [3H]CQ transport (% PfCRTEcu1110 control), cis-inhibition, PfCRTEcu1110: 15 ± 0.6 % PfCRTEcu1110 control
PfCRT^3D7 [7]; [test solute] = 0.5 mM
  Uptake of [3H]CQ (% PfCRT3D7 control), cis-inhibition: 102 ± 4.3 % PfCRT3D7 control
PfCRT^3D7 [7]; [test solute] = 1 mM
  Uptake of [3H]CQ (% PfCRT3D7 control), cis-inhibition: 98 ± 4.8 % PfCRT3D7 control
PfCRT^3D7 [7]; [test solute] = 2 mM
  Uptake of [3H]CQ (% PfCRT3D7 control), cis-inhibition: 102 ± 5.8 % PfCRT3D7 control
non-expressing oocytes [8]; [test solute]i = 5 mM
  Uptake of [3H]CQ (% non-expressing oocyte control), trans-stimulation: 100 ± 2.7 % non-expressing oocyte control
non-expressing oocytes [8]; [10]
  Uptake of [3H]CQ (% non-expressing oocyte control), trans-stimulation: 97 ± 2.5 % non-expressing oocyte control
